The values that follow come from patent US20220054493A1, “INHIBITORS OF NGAL PROTEIN” (INSERM (INSTITUT NATIONAL DE LA SANTÉ ET DE LA RECHERCHE …, priority 2019, published 2022).

The target of one series is T1, hERG channel (Homo sapiens, UniProt Q12809).
T1 construct: purchased Thermo Fisher Scientific
Briefly: Cardiotoxicity, Predictor hERG fluorescence polarization kit. It is filed as binding. The protocol:
(§1) Two specific toxicity assays have been performed to assess hepatoxicity and cardiotoxicity. Hepatotoxicity was evaluated in isolated hepatocytes from swiss mice and determined by the MTT colorimetric assay. Cardiotoxicity was evaluated using the commercially available Predictor hERG fluorescence polarization kit (Thermo Fisher Scientific). Several ADME assays have been carried out on the compounds generated throughout the project. The following experiments were undertaken: Stability in human microsomes, binding to human plasma protein, and CYP3A4 inhibition assay (Vivid CYP3A4 assay, Thermo Fisher Scientific). Physico-chemical properties were also assessed such as aqueous solubility and chemical stability.

The subject of series [1] is Myocardial Infarction Model. Briefly: Profibrotic, IL6 and inflammatory target tissue content in the myocardial infarction model. Particulars: MI model, 100 mg/kg/day in food admix, three months. It is filed as in vivo, mice. The method, then: Total protein aliquots of 20 μg were prepared from cardiac homogenates and electrophoresed on SDS polyacrylamide gels and transferred to Hybond-c Extra nitrocellulose membranes (Amersham Biosciences). Membranes were incubated with primary antibodies for: NGAL (Abcam; dilution 1:500), Collagen type III (Santa Cruz; dilution 1:500), a-SMA (Sigma; dilution 1:1000), CTGF Abcam; dilution 1:500), GDF-15 (Abcam; dilution 1:500), fibronectin (Millipore, 1:500), Galectin-3 (Thermo, 1:1000), Cardiotrophin-1 (Abcam, 1:500), osteopontin (Santa Cruz, 1:1000), cd3 (Abcam, 1:500), cd68 (Abcam, 1:500), cd80 (Santa Cruz, 1:500) and β-actin (Sigma; dilution 1:1000) as a loading control. […] After densitometric analyses, optical density values were expressed as arbitrary units. Results are expressed as an n-fold increase over the values of the control group in densitometric arbitrary units. NGAL, IL6 and collagen type I concentrations were measured in cardiac tissue and cell supernatants, respectively, by ELISA according to the manufacturer's instructions (R&D Systems).

A further series in a line: Aqueous solubility. The series is classed as physicochemical. The protocol: as §1
In series [2] the test system is Salt-sensitive hypertension. Briefly: Salt-sensitive hypertension (L-NAME plus High Salt Diet). It is filed as in vivo, mice. Particulars: GP1 100 mg/kg/day in food, 10 days; FIG. 17. The protocol:
Systolic BP was measured by tail-cuff plethysmography in trained conscious mice at weeks 8-10 using a BP2000 Visitech model. BP was measured every day in the same room at the same hour for 5 consecutive days. The BP measurements (expressed as mmHg) presented are the averages of the last 3 days Salt-sensitive hypertension was induced by co-administration of L-NAME 70 mg/l in drinking water together with 8% NaCl in chow food (High Salt Diet, HSD) for 10 days. GP1 (100 mg/kg/day) was added or not into the food. Control experiments included vehicle (control), L-NAME or high salt (HSD) alone. Systolic blood pressure (expressed as mmHg) was estimated in the last 3 days of treatment.

Series [3] has as its system Myocardial Infarction Model. Briefly: Cardiac fibrosis and collagen immunostaining in the myocardial infarction model. It is filed as in vivo, mice. Particulars: MI model, 100 mg/kg/day in food admix, three months. The source says:
After assessment of cardiac hemodynamics, the heart was removed, and the atria and the ventricles were separated and weighed individually. A section of the left ventricle was immersed in Bouin fixative solution. After fixation, the sections were dehydrated and embedded in paraffin. From these sections, […] histologic slices were obtained and were stained with Sirius Red. For the measurement of cardiac collagen density, slides were examined and photographed under a light microscope (Zeiss) at 40× magnification. Collagen content was calculated as percentage of collagen area to total area of the image. Perivascular collagen was excluded from the analysis.
Frozen mid-LV sections are thawed at room temperature (30 min), immersed in acetone, rinsed in PBS (1×) and immersed in BSA (10 min each). Slides are then incubated with primary rabbit anti-human collagen-I Ab (Abcam ab 34710) (dilution 1/1000) and primary goat anti-human collagen-III Ab (Rnd NBP1 26547) (dilution 1/500) for 1 hour. Thereafter, slides are rinsed three times in PBS (1×) before being incubated with secondary antibodies donkey […] coupled with FITC (Jackson immunosearch 715-095-151) and donkey anti-goat coupled with Cy3 (Interchim A50-201D3) (dilution 1/400). After three rinses in PBS (1×), slides are mounted with a cover slip on a vecatshield+DAPI medium (Vector Laboratories). A minimum of 8/slide microscopic photographs (×20) were taken from Axiocam-Z1 (Zeiss) fluorescence microscope and analyzed with Image Pro-plus Software. Results are shown as mean±esm.

Series [4] is described as follows: Binding to human plasma protein. The series is classed as in vitro ADME. Particulars: human, human plasma protein; read-out: hPPB (converted). The protocol:
as §1

In a further series the test system is human plasma protein. Briefly: Binding to human plasma protein. The series is classed as in vitro ADME. The method, then: as §1

T1 sequence (Q12809 whole entry): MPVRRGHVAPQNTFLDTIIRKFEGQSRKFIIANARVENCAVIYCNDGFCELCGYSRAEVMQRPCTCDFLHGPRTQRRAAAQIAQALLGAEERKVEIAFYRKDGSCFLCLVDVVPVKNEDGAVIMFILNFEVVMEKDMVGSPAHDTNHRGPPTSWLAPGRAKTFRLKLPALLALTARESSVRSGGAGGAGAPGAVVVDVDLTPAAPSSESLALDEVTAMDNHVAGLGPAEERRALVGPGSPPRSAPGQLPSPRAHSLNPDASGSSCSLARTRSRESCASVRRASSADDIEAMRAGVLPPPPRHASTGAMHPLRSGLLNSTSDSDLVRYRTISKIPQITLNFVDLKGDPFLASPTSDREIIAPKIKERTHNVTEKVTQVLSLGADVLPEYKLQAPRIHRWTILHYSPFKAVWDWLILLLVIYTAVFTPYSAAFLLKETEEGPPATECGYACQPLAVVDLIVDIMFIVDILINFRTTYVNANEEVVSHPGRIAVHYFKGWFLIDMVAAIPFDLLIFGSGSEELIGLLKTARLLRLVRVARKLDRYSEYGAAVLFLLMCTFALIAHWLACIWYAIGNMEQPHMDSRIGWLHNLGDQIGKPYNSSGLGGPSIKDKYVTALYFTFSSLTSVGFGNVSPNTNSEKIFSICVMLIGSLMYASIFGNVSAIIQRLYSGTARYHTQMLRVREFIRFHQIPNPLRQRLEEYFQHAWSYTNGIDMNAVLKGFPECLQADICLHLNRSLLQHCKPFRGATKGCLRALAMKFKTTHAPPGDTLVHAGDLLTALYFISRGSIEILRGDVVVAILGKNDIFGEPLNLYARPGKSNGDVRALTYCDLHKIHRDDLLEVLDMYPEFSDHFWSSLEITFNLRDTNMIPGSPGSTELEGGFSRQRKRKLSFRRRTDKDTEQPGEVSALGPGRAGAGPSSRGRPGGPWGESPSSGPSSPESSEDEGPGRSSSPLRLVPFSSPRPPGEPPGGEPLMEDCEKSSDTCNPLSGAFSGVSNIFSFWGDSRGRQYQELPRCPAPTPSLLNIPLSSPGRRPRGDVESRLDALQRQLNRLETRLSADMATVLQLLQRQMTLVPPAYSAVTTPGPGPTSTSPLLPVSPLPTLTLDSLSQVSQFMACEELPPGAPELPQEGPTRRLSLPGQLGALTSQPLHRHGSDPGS

Turning to `CC(=O)c1cccc(S(=O)(=O)NCc2ccccc2-n2cccn2)c1` [GPZ614741], on hERG channel, the “cardiotoxicity (hERG predictor assay)” value is “no toxicity”. Moreover, the “Cardiotoxicity % (100 = no toxicity)” value at hERG channel (100 = no toxicity) is on record as 101.76 ± 2.48%. The aSMA tissue content result in series [1] (FIG. 10 panel A) is reported as “significant prevention of up regulation”. Further, in series [1] (FIG. 10 panel B), the GDF15 tissue content result was “significant prevention of up regulation”. The CTGF tissue content entry in series [1] (FIG. 10 panel C) is reported as “significant prevention of up regulation”. Also, in series [1] (FIG. 10 panel D), the Col1 tissue content result is given as “significant prevention of up regulation”. For the same compound, in series [1] (FIG. 11 panel A), the IL6 tissue content entry is “significant prevention of up regulation”. In addition, the CD68 tissue content result in series [1] (FIG. 12 panel C) is “significant prevention of up regulation”. Besides, the “CD 80 tissue content” value in series [1] (FIG. 12 panel D) is “significant prevention of up regulation”. Further, the CD86 tissue content result in series [1] (FIG. 12 panel E) was “significant prevention of up regulation”. Also, in series [1] (FIG. 12 panels A, B), the CD3 tissue content entry is reported as “significant prevention of up regulation”. For the same compound, in “Aqueous solubility”, the Aquous solubility is reported as 100% and the “solubility in aqueous buffers (solubility test)” value is recorded as “perfectly soluble”. Besides, in series [2], the “increase of blood pressure induced by the combination of L-NAME and high salt (HSD)” value was “prevented the increase”. The “LV interstitial collagen density” value in series [3] (FIG. 9 panel A) is recorded as “significant decrease”. Further, in series [3] (FIG. 9 panel B), the “Col I immunostaining” value is “decrease”. Moreover, the “Col III immunostaining” value in series [3] (FIG. 9 panel C) is reported as “decrease”. The fraction unbound in series [4] was 0.288. Also, in the series on human plasma protein, the “PPB (binding to plasma proteins)” value was “low”.
